For 6 compounds, IC50 results are on record in patent US6656932B2, “Benzo thiadiazine matrix metalloproteinase inhibitors” (Warner-Lambert Company, priority 2001, dated 2003).

Holding throughout (format): biochemical
For experiment [1], the target named is T1, MMP-7FL (full-length matrilysin) (Homo sapiens, UniProt P09237).
T1 sequence (P09237 95-267): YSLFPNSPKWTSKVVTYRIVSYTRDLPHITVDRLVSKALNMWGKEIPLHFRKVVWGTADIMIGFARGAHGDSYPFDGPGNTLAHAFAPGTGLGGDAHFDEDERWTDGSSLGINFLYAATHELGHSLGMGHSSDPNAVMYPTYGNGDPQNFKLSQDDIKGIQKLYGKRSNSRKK
Nature of the experiment: Thiopeptolide hydrolysis assay, MMP-7FL. Conditions: Table 2; thiopeptolide substrate, HEPES pH 7.0; read-out: IC50 (μM) Versus Certain MMPs: MMP07 (FL). An excerpt:
(§1) The invention compounds of Formula I have been evaluated in standard assays for their ability to inhibit the catalytic activity of various MMP enzymes.
(§2) Thiopeptolide substrates show virtually no decomposition or hydrolysis at or below neutral pH in the absence of a matrix metalloproteinase enzyme.
(§3) Several representative compounds have been evaluated for their ability to inhibit various matrix metalloproteinase enzymes.

For experiment [2], the target named is T2, MMP-2FL (full-length Gelatinase A) (Homo sapiens, UniProt P08253).
T2 sequence (P08253 110-660): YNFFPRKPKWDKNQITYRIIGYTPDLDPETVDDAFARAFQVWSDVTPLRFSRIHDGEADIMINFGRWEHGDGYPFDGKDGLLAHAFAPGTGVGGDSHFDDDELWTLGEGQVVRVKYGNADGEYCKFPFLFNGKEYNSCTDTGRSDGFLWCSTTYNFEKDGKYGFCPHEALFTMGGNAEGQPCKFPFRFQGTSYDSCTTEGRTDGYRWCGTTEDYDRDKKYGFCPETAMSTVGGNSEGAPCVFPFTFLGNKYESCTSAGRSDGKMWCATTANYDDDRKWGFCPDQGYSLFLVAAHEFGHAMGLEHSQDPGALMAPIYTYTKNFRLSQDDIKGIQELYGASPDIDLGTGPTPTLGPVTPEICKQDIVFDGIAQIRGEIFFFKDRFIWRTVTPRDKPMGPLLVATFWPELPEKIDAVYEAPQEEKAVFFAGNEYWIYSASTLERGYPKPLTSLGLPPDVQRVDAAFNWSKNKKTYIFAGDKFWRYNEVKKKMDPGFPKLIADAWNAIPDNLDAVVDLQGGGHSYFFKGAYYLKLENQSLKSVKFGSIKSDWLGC
Description: Thiopeptolide hydrolysis assay, MMP-2FL. Conditions: Table 2; thiopeptolide substrate, HEPES pH 7.0; read-out: IC50 (μM) Versus Certain MMPs: MMP02 (FL).
Text: as §1, §2, §3

In experiment [3] the target is T3, MMP-1FL (full-length interstitial collagenase) (Homo sapiens, UniProt P03956).
T3 sequence (P03956 100-469): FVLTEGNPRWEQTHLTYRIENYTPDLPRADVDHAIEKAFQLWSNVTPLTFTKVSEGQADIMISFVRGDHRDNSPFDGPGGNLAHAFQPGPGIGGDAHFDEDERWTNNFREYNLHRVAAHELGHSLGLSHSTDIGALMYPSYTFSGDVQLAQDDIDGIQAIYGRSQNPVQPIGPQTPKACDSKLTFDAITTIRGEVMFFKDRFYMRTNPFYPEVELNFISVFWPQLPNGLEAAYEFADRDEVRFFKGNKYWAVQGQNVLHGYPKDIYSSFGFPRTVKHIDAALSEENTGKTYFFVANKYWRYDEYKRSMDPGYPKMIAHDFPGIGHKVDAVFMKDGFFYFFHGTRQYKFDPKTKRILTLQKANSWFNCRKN
Description: Thiopeptolide hydrolysis assay, MMP-1FL. Conditions: Table 2; thiopeptolide substrate, HEPES pH 7.0; read-out: IC50 (μM) Versus Certain MMPs: MMP01 (FL).
Text: as §1, §2, §3

The target of experiment [4] is MMP-14CD (catalytic domain of MMP-14) (Homo sapiens, UniProt P50281). Nature of the experiment: Thiopeptolide hydrolysis assay, MMP-14CD. Conditions: Table 2; thiopeptolide substrate, HEPES pH 7.0; read-out: IC50 (μM) Versus Certain MMPs: MMP14 (CD).
Text: as §1, §2, §3

Experiment [5] addresses MMP-9FL (full-length Gelatinase B) (Homo sapiens, UniProt P14780). Description: Thiopeptolide hydrolysis assay, MMP-9FL. Conditions: Table 2; thiopeptolide substrate, HEPES pH 7.0; read-out: IC50 (μM) Versus Certain MMPs: MMP09 (FL).
Text: as §1, §2, §3

Experiment [6] deals with MMP-3CD (catalytic domain of stromelysin-1) (Homo sapiens, UniProt P08254). Description: Thiopeptolide hydrolysis assay, MMP-3CD. Conditions: Table 2; thiopeptolide substrate, MES buffer pH 6.0; read-out: IC50 (μM) Versus Certain MMPs: MMP03 (CD). Here is the method: as §1, §2, §3
MMP-3CD (catalytic domain of stromelysin-1), sequence (P08254 100-272 limits assumed): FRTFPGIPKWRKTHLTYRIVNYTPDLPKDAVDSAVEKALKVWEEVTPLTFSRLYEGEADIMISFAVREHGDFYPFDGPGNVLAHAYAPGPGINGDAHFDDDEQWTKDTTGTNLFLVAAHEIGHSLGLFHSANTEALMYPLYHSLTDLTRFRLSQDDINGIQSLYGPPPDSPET
It should be appreciated that the assay buffer used with MMP-3CD was 50 mM of N-morpholinoethane sulfonate (“MES”) at pH 6.0 rather than the HEPES buffer at pH 7.0 described above.

The target of experiment [7] is MMP-13CD (catalytic domain of collagenase 3) (Homo sapiens, UniProt P45452). Nature of the experiment: Thiopeptolide hydrolysis assay, MMP-13CD. Conditions: Table 2; thiopeptolide substrate, HEPES pH 7.0; read-out: IC50 (μM) Versus Certain MMPs: MMP13 (CD).
Text: as §1, §2, §3

MMP-9FL (full-length Gelatinase B), sequence (P14780 94-707, species assumed): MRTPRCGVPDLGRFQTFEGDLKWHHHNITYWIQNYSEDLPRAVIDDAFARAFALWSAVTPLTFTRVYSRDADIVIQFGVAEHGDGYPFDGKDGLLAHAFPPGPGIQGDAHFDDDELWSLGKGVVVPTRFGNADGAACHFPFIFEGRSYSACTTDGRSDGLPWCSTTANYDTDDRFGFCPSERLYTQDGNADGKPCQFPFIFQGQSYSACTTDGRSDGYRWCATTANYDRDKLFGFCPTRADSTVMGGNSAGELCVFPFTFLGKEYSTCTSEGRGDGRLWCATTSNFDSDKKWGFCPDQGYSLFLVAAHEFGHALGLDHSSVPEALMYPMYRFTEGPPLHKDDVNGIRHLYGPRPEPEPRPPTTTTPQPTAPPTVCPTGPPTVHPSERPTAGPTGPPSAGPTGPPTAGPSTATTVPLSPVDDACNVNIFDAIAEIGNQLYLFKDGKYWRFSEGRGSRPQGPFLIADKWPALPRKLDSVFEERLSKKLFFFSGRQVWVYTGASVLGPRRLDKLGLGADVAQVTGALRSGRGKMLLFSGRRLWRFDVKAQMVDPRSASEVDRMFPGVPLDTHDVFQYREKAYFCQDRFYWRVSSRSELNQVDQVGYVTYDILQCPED

Turning to `CN1C(=O)N(Cc2ccc(C(=O)O)cc2)S(=O)(=O)c2cc(C(=O)NCc3ccccc3)ccc21` [Example 11, 4-(7-Benzylcarbamoyl-4-methyl-1,1,3-trioxo-3,4-dihydro-H-1l^6-benzo[1,2,4]thiadiazin-2-ylmethyl)-benzoic Acid], the IC50 in experiment [1], in experiment [2], in experiment [3], in experiment [4], in experiment [5] and in experiment [6] was above 100 µM in each case. In experiment [7], the IC50 (commonly the point on the concentration scale where inhibition reaches its midpoint) was 0.066 µM.
For `COc1ccc(CNC(=O)c2ccc3c(c2)S(=O)(=O)N(Cc2ccc(C(=O)NC(C(=O)O)C(C)C)cc2)C(=O)N3C)cc1` (stereo not drawn) [Example 28, 2-{4-[7-(4-Methoxy-benzylcarbamoyl)-4-methyl-1,1,3-trioxo-3,4-dihydro-1l^6-benzo[1,2,4]thiadiazin-2-ylmethyl]-benzoylamino}-3-methyl-butyric Acid], the half-inhibitory concentration (IC50) in experiment [1] was above 100 µM; in experiment [3], above 100 µM; in experiment [4] it was above 100 µM; in experiment [5] it was above 100 µM; in experiment [6], above 30 µM; in experiment [7], 0.25 µM.
For `COc1ccc(CNC(=O)c2ccc3c(c2)S(=O)(=O)N(Cc2ccccc2)C(=O)N3C)cc1` [Example 5, 2-Benzyl-4-methyl-1,1,3-trioxo-1,2,3,4-tetrahydro-1l^6-benzo[1,2,4]thiadiazine-7-carboxylic acid 4-methoxy-benzylamide], the IC50 in experiment [1] is 51 µM; in experiment [2] it was above 100 µM; in experiment [3], above 30 µM; in experiment [4], above 30 µM; in experiment [5] it was above 30 µM; in experiment [6], above 30 µM. For the same compound, the IC50 in experiment [7] was 0.17 µM.
On to `CN1C(=O)N(Cc2ccc(C(=O)O)cc2)S(=O)(=O)c2cc(C(=O)NCc3ccc(F)cc3)ccc21` [Example 25, 4-[7-(4-Fluoro-benzylcarbamoyl)-4-methyl-1,1,3-trioxo-3,4-dihydro-1H-1l^6-benzo[1,2,4]thiadiazin-2-ylmethyl]-benzoic Acid], for which the concentration for half-maximal inhibition (IC50) is above 100 µM in experiment [1]; above 100 µM in experiment [3]; above 100 µM in experiment [4]; above 100 µM in experiment [5]; above 30 µM in experiment [6]; 0.019 µM in experiment [7].
Turning to `CN1C(=O)N(Cc2ccccc2)S(=O)(=O)c2cc(C(=O)NCc3ccc4nsnc4c3)ccc21` [Example 24, 2-Benzyl-4-methyl-1,1,3-trioxo-1,2,3,4-tetrahydro-1l^6-benzo[1,2,4]thiadiazine-7-carboxylic acid (2,1,3-benzothiadiazol-5-ylmethyl)-amide], the IC50 in experiment [1] is above 30 µM; in experiment [3], above 30 µM; in experiment [4], above 30 µM; in experiment [5], above 30 µM; in experiment [6] it was 13 µM; in experiment [7] it was 0.125 µM.
For `COc1ccc(CNC(=O)c2ccc3c(c2)S(=O)(=O)N(Cc2ccc(C(=O)O)cc2)C(=O)N3C)cc1` [Example 13, 4-[7-(4-Methoxy-benzylcarbamoyl)-4-methyl-1,1,3-trioxo-3,4-dihydro-1H-1l^6-benzo[1,2,4]thiadiazin-2-ylmethyl]-benzoic Acid], the IC50 is above 100 µM in experiment [1]; above 100 µM in experiment [2]; above 100 µM in experiment [3]; above 100 µM in experiment [4]; above 100 µM in experiment [5]; 64 µM in experiment [6]. Also, the IC50 in experiment [7] was 0.011 µM.
